PMC9138505, “Small Molecule 20S Proteasome Enhancer Regulates MYC Protein Stability and Exhibits Antitumor Activity in Multiple Myeloma” (Biomedicines, 2022)

How the values were obtained:
MYC = MYC degradation in MM cells, Western blot; format: cell-based, human; conditions: RPMI-8226 cells
Procedure: Western blot: RPMI-8226 cells were grown to approximately 80% confluency in a T-75 flask. Cells were treated with either vehicle (DMSO) or TCH-165 at the indicated concentrations, for 4 h. In experiments involving bortezomib, cells were pre-treated with bortezomib (5 μM) for 1 h before adding TCH-165 or vehicle for a further 4 h. Cells were pelleted and washed with chilled PBS buffer (2X) and resuspended in chilled RIPA buffer supplemented with protease inhibitor cocktail (Sigma Aldrich; Burlington, MA, USA). Total protein was quantified by bicinchoninic acid assay (BCA assay, Thermofisher Scientific; Waltham, MA, USA), normalized to 2 mg/mL and boiled with 5X SDS loading buffer. Lysates (30 μg) were resolved on a 4–20% Tris/glycine gel and transferred to a PVDF membrane. The membrane was probed with anti MYC (Cell Signaling; cat#5605; Danvers, MA, USA) and anti-GAPDH-HRP (Santa Cruz; sc-47724 HRP; Dallas TX, USA) antibodies.

c-MYC [1] = test: c-MYC degradation ELISA in L363 cells; format: cell-based, human; conditions: various concentrations, 4 h
Procedure: (§1) ELISA: c-MYC degradation in L363 and H929 cells. L363 cells were grown in T-25 flasks in RPMI-1640 medium supplemented with 15% heat-inactivated fetal bovine serum (FBS) and 1% penicillin/streptomycin at 37 °C and 5% CO2. H929 cells were grown in T-25 flasks in RPMI-1640 medium supplemented with 10% FBS, 0.05 mM 2-mercaptoethanol, and 1% penicillin/streptomycin. Cells were treated with DMSO, TCH-165, or bortezomib (BTZ) at the indicated concentrations for 4 h (0.1% final DMSO concentration). Following the 4-hour treatment, cells were pelleted, washed with chilled PBS buffer, and resuspended in chilled lysis buffer (10 mM Tris, 100 mM NaCl, 1 mM EDTA, 1 mM EGTA, 1 mM NaF, 20 mM Na4P2O7, 2 mM Na3VO4, 1% Triton X-100, 10% glycerol, 0.1% SDS, and 0.5% deoxycholate; pH 7.4) supplemented with Complete Mini Protease Inhibitor Cocktail (Sigma Aldrich). The lysate was clarified by centrifugation at 5000 rpm (4 °C) for 15 min. Total protein of the lysate was quantified by bicinchoninic acid assay (BCA assay, Thermofisher Scientific; Waltham, MA, USA). and normalized to 1.5 mg/mL total protein. The supplied protocol for the human c-MYC (Total) ELISA Kit (Invitrogen; Waltham, MA, USA) was used to determine the total c-MYC concentration of the lysates. Prior to loading lysate into ELISA plate wells, lysate (5 µL) was diluted into 45 µL of supplied standard diluent buffer.

[2] = Pharmacokinetic assessment in dogs; format: in vivo; conditions: male, beagle, dog
Procedure: Adult beagle dogs (male, 12 months of age, n = 3), weighing approximately 10 kg, received a […] of the test compound at 500 mg bid delivered in capsule form. Blood (approximately 2.5 mL) was collected into lithium heparin tubes at 0, 1 h, 2 h, 4 h, 8 h, and 24 h post-day 1 and post-day 5 dose for PK assessment using mass spectrometry. Blood (approximately 2 mL) was also collected and divided into EDTA and standard clot tubes on day 6 post-dose for determination of CBC and clinical chemistry parameters, respectively, and analyzed at the Michigan State University Veterinary Diagnostic Laboratory. Clinical observations were conducted daily on non-dosing days and twice on dosing days.

c-MYC [3] = test: c-MYC degradation ELISA in H929 cells; format: cell-based, human; conditions: various concentrations, 4 h
Procedure: as §1

[4] = tested on: human constitutive 20S proteasome; test: Proteasome activity in purified protein assay (fluorogenic AMC peptide substrates); format: biochemical
Procedure: The proteolytic activity of the 20S proteasome can be monitored in vitro by measuring the cleavage of fluorogenic peptide substrates for the different catalytic sites as an increase in 7-amino-4-methylcoumarin (AMC) fluorescence over time, as previously reported. Purified human 20S proteasome was pre-treated with a concentration range of TCH-165 or DMSO (vehicle control) for 15 min at 37 °C, on a black flat/clear bottom 96-well plate containing 1 nM of human constitutive 20S proteasome in 50 mM Tris-HCl pH 7.5. Fluorogenic substrates, Suc-LLVY-AMC (CT-L activity, 10 μM), Z-LLE-AMC (Casp-L activity, 10 μM), Boc-LRR-AMC (Tryp-L activity, 20 μM), were then added and the enzymatic activity measured at 37 °C on a SpectraMax M5e spectrometer by measuring an increase in the fluorescence unit per minute for 1 h at 380–460 nm. The release of AMC was monitored as fluorescence over time for 1 h and the resulting 20S activity changes were determined by comparing to the untreated 20S and calculating the fold-increase in activity over vehicle control for each analog at a given concentration.

[5] = blood, dogs, 50 mg/kg bid oral capsule

- Cmax [2, 5]: 1600 nM
- Tmax [2, 5]: 24 h
- Cmax ([2]; plasma, dogs (n=3), means, 50 mg/kg bid oral): 1570 nM
- AUC ([2]; plasma, dogs (n=3), means, 50 mg/kg bid oral, read-out: AUC (nM) (0-24 for dogs)): 19.8 µM·h
- EC200 (concentration at which TCH-165 doubles 20S activity) ([4]; CT-L site (b-5), substrate Suc-LLVY-AMC): 1.5 µM
- Fold^M (maximum fold enhancement of 20S activity) ([4]; CT-L site, Suc-LLVY-AMC): 810%
- Fold^M (maximum fold enhancement of 20S activity) ([4]; Casp-L site, Z-LLE-AMC): 1290%
- Fold^M (maximum fold enhancement of 20S activity) ([4]; Tryp-L site, Boc-LRR-AMC): 500%
SMILES: CCOC(=O)[C@]1(c2ccccc2)N=C(c2ccc(OC)cc2)N(Cc2ccccc2)[C@@H]1c1ccc(NCc2ccccc2)cc1 [TCH-165]
- efficacy of TCH-165 on MYC protein levels with proteasome blocked (MYC; TCH-165 5 μM with BTZ 5 μM): nearly completely abrogated
- MYC protein levels compared to vehicle control (MYC; TCH-165 5 μM, 4 h): reduced MYC protein levels
- MYC clearance (percent MYC remaining) (c-MYC [1]): induced clearance of MYC
- MYC clearance (percent MYC remaining) (c-MYC [3]): induced clearance of MYC
